The results in this text go back to patent publication US9757317B2, “Cosmetic compositions and methods for inhibiting melanin synthesis” (The Procter & Gamble Company, priority 2014, dated 2017).

Structures can show the parent of a compound that is named as a salt.

For the experiment, the system named is B16-F1 mouse melanoma cells. The experiment can be described thus: Melanin Synthesis Assay. Format: cell-based. The protocol:
A B16-F1 mouse melanoma cell line may be employed as an assay to measure melanin synthesis. The B16-F1 cells may be obtained from American Tissue Culture Collection, Virginia, USA. The cell culture medium that may be used in the assay may comprise 500 mL of Dulbecco's Modified Eagle's Medium (DMEM), 50 mL Fetal Bovine Serum (FBS), and 5 mL of penicillin-streptomycin liquid. B16-F1 cells that are cultured in this medium and grown to greater than 90% confluency synthesize melanin. While not intending to be bound by any theory, it is hypothesized that melanin synthesis is stimulated by the culture medium and/or stress induced by growth to a high confluency. The DMEM and FBS can be obtained from American Tissue Culture Collection and the penicillin-streptomycin liquid can be obtained from Invitrogen, Inc., California, USA. Equipment used in the assay include a CO2 incubator, such as a Form a Series Model 3110 by Therma Scientific, Massachusetts, USA; a hemocytometer, such as a Bright Line model by Hauser Scientific, Pennsylvania, USA; and a UV-Visible Spectrum Plate Reader, such as a SpectraMax250 from Molecular Devices, California, USA. The assay steps may include:
Day 0—Cell Growth: Warm the cell culture medium to 37° C. and place 29 mL into a T-150 flask. Add approximately 1×10^6 of B16-F1 passage 1 mouse cells to the T-150 flask and incubate for 3 days at 37° C., 5% CO2, 90% relative humidity, until ˜80% confluency;
Day 3—Initiate a 96 Well Plate: At day 3, trypsinize the cells from the T-150 flask and determine the concentration of cells using a hemocytometer. Initiate a 96 well plate with 2,500 cells per well in 100 microliters of cell culture medium. Incubate the plate at 37° C., 5% CO2, 90% relative humidity for about 2 days until at least 20% to 40% confluency;
Day 5—Decant the cell culture medium from the plate and replace with fresh culture medium (100 uL per well). Add 1 microliter of [test compound] diluted in a [water or DSMO] solvent. Multiple dilution ratios may be tested in order to generate a dose response curve, wherein preferably three wells are treated with each dilution ratio. Controls comprise wells having the cell culture medium, B16-F1 cells, and the solvent (control #1); wells comprising the cell culture medium and the solvent (control #2); and optionally wells comprising the cell culture medium, solvent and [test compound] when necessary to control for the [test compound] background color (control #3);
Day 7—Measure Melanin Production: Cells should have a confluency greater than ˜90%. […] Add 100 microliters of a 0.75% sodium hydroxide solution to each well. Read the 96 well plate using the UV-Vis Plate Reader at 410 nm to optically measure the amount of melanin produced between wells that are treated with [test compound] and control wells that are not treated with a test compound. Wells in which melanin is produced typically appear brownish in color. Wells in which little melanin is produced typically appear clear to light purple in color. Percentage of melanin synthesis inhibition is calculated by the following equation: […]
Where OD410 is the Optical Density at 410 nm as measured by the UV-Vis Spectrum Plate Reader.
When Control #3 is used, the formula for percentage melanin synthesis inhibition is: […]
Using generally the assay outlined above, melanin synthesis in treated B16-F1 cells was inhibited as compared to control cells as shown in Table 1.

Setting [1] is: test material (0.002 to 0.5%) combined with Bis/HD/Nia.
[2] abbreviates: test material (0.002 to 0.5%) combined with Bis/UP/Nia.

Take `CCCCCCCCCCC(O)CCCC` (stereo not shown) [5-Pentadecanol]: the “Average Melanin % Inhibition” value under setting [1] is listed as 46%.

Regarding `CCCCCCCCCCCCCCCCCC(=O)OCC(O)CO` (racemic) [1-Stearoyl rac-Glycerol, 1-Stearoyl-rac-glycerol], the “Average Melanin % Inhibition” value (test material (0.002 to 0.5%) combined with Bis/HD/UP/Nia) is given as 38%. With `CCCCCCCCCCCCCCCCCCO` [Stearyl Alcohol, Stearyl alcohol], the “Average Melanin % Inhibition” value is, setting by setting: under setting [1], 60%; under setting [2], 73%.

Take `CCCCCCCCCCCCCCCCCCOCC(O)CO` (stereo not shown) [Sample 8, batyl alcohol]: the “Average Melanin % Inhibition” value (Table 2, 0.03% Bat, 0.003% Bis, 0.0005% HD, 0.0001% UP, 0.0005% Nia where included) worked out at 7%. Consider `CC(C)=CCC[C@](C)(O)[C@@H]1CC=C(C)CC1` [Sample 1, bisabolol], for which the “Average Melanin % Inhibition” value (Table 1, B16-F1 cells, 0.1% Bis, 0.00056% HD, 0.00011% UP, 0.00056% Nia where included) is 2.2%. Take `CCCCC(CC)COC(=O)/C=C\C(=O)OCC(CC)CCCC` (stereo not shown) [Bis (2-ethylhexyl) Maleate, Bis (2-ethylhexyl) maleate]: the “Average Melanin % Inhibition” value was 32% under setting [1] and 45% under setting [2]. For `CCCCCCCCCCCCCCCC(=O)OCC` [Ethyl Palmitate, Ethyl palmitate] the same measures were 82% and 84%.

In the case of `CCCCC(CC)COC(=O)CCCCCCCCC(=O)OCC(CC)CCCC` (stereo not shown) [Bis (2-ethylhexyl) Sebacate, Bis (2-ethylhexyl) sebacate], the “Average Melanin % Inhibition” value runs as follows: under setting [1], 79%; under setting [2], 88%. Turning to `CCCCC(CC)COC(=O)CCCCC(=O)OCC(CC)CCCC` (stereo not shown) [Bis (2-ethylhexyl) Adipate, Bis (2-ethylhexyl) adipate], the “Average Melanin % Inhibition” value under setting [2] is recorded as 42%.
